Measured values published in ChEMBL document CHEMBL1687795, “Mathematical modeling to characterize the inoculum effect” (2010).
Converted amounts (≈) assume the structure as drawn. The source made the active and inactive calls. The rule behind the calls is not given here.

Experiments:
Escherichia coli [1] = assay: Antimicrobial activity against Escherichia coli ATCC 25922 by broth macrodilution method in presence of beta-lactamase inhibitor Tazobactam; format: functional, organism-based
Escherichia coli [2] = assay: Bactericidal activity against Escherichia coli ATCC 25922 using 10^5 CFU/ml inoculum assessed as log reduction in bacterial count at 4 times MIC after 24 hrs by time-kill study; format: functional
Escherichia coli [3] = assay: Bactericidal activity against Escherichia coli ATCC 25922 using 10^8 CFU/ml inoculum assessed as log reduction in bacterial count at 256 times MIC after 24 hrs by time-kill study; format: functional
Escherichia coli [4] = assay: Antimicrobial activity against Escherichia coli ATCC 25922 by broth macrodilution method; format: functional

Question: For `CCN1CCN(C(=O)N[C@@H](C(=O)N[C@@H]2C(=O)N3[C@@H]2SC(C)(C)[C@@H]3C(=O)O)c2ccccc2)C(=O)C1=O` [PIPERACILLIN], which Activity (Escherichia coli [1]) is on record?
Answer: Active

Question: And the FC (Escherichia coli [2])?
Answer: >2

Question: What about the FC (Escherichia coli [3]) of the same compound?
Answer: >2

Question: And the MBC (Escherichia coli [4])?
Answer: 2 µg/mL (≈ 3.86 µM)

Question: And the MIC (Escherichia coli [4])?
Answer: 2 µg/mL (≈ 3.86 µM)
